For assay [1], the system named is spreading depression (SD) in hippocampal slice cultures. The assay can be described thus: Spreading depression (SD) threshold / susceptibility in hippocampal slice cultures. The class given is cell-based, rat. The text has this:
FIGS. 2A-2E. […] (FIG. 2A) Experiments begin with determination of the current needed to maximize standard CA3 area field potential responses. Half-maximal intensity is then used to elicit CA3 area evoked field potentials from dentate gyrus bipolar electrical stimulation. This documents the normalcy of evoked synaptic responses between preparations. If a slice's field excitatory post synaptic potentials are not at least 3 mV, slices are discarded. Next, field potential trains (i) are noted to verify that preparations are healthy enough to follow 10 Hz stimulation (e.g., amplitudes of vertical deviations in fast potential records are similar) and the current needed to trigger SD (ii) is registered (Pusic and Kraig, 2010).
(FIG. 8a) Exemplary CA3 area evoked field potential. Experiments begin with establishment of the current intensity needed to evoke maximal field potential responses; stimuli of half-maximal intensity were then used to elicit subsequent field potentials. Only those cultures with CA3 pyramidal neuron post-synaptic responses of at least 3 mV were used for experiments. (FIG. 8b) CA3 response to dentate gyrus bipolar stimulation (10 pulses at 10 Hz, 500 μA) was used to elicit a spreading depression (SD), as shown in (FIG. 8c). (FIG. 8c) The spreading depression (SD) shown here was induced by the stimulation/response (arrow) shown in (FIG. 8b). […] Comparisons between groups made via Student's t-test.
The inventors induced SD trans-synaptically in rat HSC using electrical stimuli (100 μs pulses @ 10 Hz for 1 s) ranging from 1 to 10,000 nC in order to determine SD threshold in sham and experimental groups (Pusic et al., 2011). Results were based on n≥3-6/group. […] This insulin dose approximates the pharmacological levels seen in humans treated with nasal insulin.
Slice cultures were prepared and maintained as previously described (Mitchell et al., 2010a,). After 18 days in vitro (DIV), slice cultures were transferred to serum-free media that included additional calcium and magnesium. Cultures were screened at 21 DIV to ensure no pyramidal neuron death was present. Standard electrophysiological recordings were performed by placing a slice culture insert in a PDMI recording chamber with controlled temperature and pH (FIG. 1). The recording chamber was aerated with 5% CO2-balance air at 36° C. and media flowing at 1.2 mL/min or was held static around the slice culture insert. A recording electrode was placed at the CA3 pyramidal cell layer and a stimulating electrode was placed at the surface of the dentate gyrus. Recordings were initiated prior to placing the stimulating electrode on the culture to ensure no spreading depression was triggered as a result.
Studies began with determination of the current needed to maximize standard CA3 area field potential responses. This documented the normalcy of evoked synaptic responses between preparations. If a slice's field EPSPs were not at least 3-4 mV, it was discarded.
Next, trans-synaptically evoked SD was determined. Here, the inventors stimulated slices via the dentate gyrus with 100 μs pulses delivered at 10 Hz for 1 sec every 1-2 minutes at increasing μA current intensities until SD occurred.
Slice cultures are prepared, maintained, and induced to fire SD as previously described using trans-synaptic excitation of CA3, where SD is initiated (FIG. 4) (Kunkler et al., 2005; Pusic et al., 2011).

Assay [2] relates to oxidative stress (OS) in hippocampal slice cultures. The assay can be described thus: Oxidative stress (OS) by CellROX fluorescence in hippocampal slice cultures (CA3). The class given is cell-based, rat. As for the experimental part:
FIGS. 4A-4F Oxidative stress (OS) from SD and its reduction by IGF-1. (FIG. 4A) Normal cytoarchitecture of a hippocampal slice culture showing pyramidal neuron areas of CA1, dentate gyrus (DG), and the imaging zone for the inventors' work here (dotted line), CA3. (FIG. 4B) OS was measured using CellROX, a fixable fluorescent marker from Invitrogen. […] (FIG. 4D) This reduction versus control SD was significant (p<0.02; n=4 & 5). (FIG. 4E) CellROX can be used to measure relative OS in specific brain cell types.
FIGS. 9a-9f IGF-1 decreased oxidative stress from spreading depression. (FIG. 9a) NeuN immunohistochemical labeling of a hippocampal slice culture, for cytoarchitectural reference and to show the CA3 area of interest (dotted line box) used for quantification of oxidative stress (OS) via CellROX™ fluorescence intensity. (FIGS. 9b-c) Representative CellROX™-labeled hippocampal slices exposed to SD (FIG. 9b) and to 3-day IGF-1 incubation followed by spreading depression (SD) (FIG. 9c). Dotted line boxes illustrate CA3 areas of interest used for relative OS quantifications. […] Again, seven day treatments consisted of exposing cultures to IGF-1 for 12 hours a day for seven days. Note: IGF-1 exposure was continued for the additional 24 hour CellROX™ incubation. Scale bars=400 μm (a) and 200 μm (b and c). Comparisons between groups were made via ANOVA plus Holm-Sidak post hoc testing.
FIGS. 11a-11g IGF-1 decreased CA3 oxidative stress (OS) and its related hyperexcitability. […] Relative evoked excitability was determined as a sum of responses seen (e.g., responses of “2” and a “3” yielded an overall excitability score of five). […] (FIGS. 11d-e) Exemplary images of control (FIG. 11d) slice culture OS compared to increased slice OS induced by exposure to menadione (FIG. 11e). Calibration bar, 200 Dotted boxes indicate CA3 areas of interest used for relative OS quantifications (f and g).
Oxidative stress from SD preferentially rises in astrocytes and microglia, with the latter effect mitigated by IGF-1 (FIG. 13). The inventors have recently shown that spreading depression (SD), the most likely cause of migraine aura and perhaps migraine (Lauritzen and Kraig, 2005), occurs with increased oxidative stress (OS) and that OS, in turn, increases SD susceptibility (Grinberg et al., 2012). Reactive oxygen and nitrogen species that cause OS have both autocrine and paracrine signaling capacities that can affect SD susceptibility by altering excitability (Kishida and Klann, 2007). Accordingly, the inventors looked for the cellular origin of OS from SD. Here the inventors used hippocampal slice cultures (HSC) to probe for cell-specific changes in OS from SD. SD was induced trans-synaptically in rat HSCs using bipolar electrical stimuli at the dentate gyrus (Pusic et al., 2011). Six SDs were induced every 7-9 min over an hr, followed by 24 hr incubation in CellROX™, a fixable fluorogenic probe for measuring OS (Grinberg et al., 2012). HSCs were then fixed in 10% buffered formalin phosphate. Other fixatives (PLP, 4% paraformaldehyde) prevented detection of OS change. Tissue was then labeled for neurons (anti-NeuN), oligodendrocytes (anti-RIP), astrocytes (anti-GFAP), or for microglia (isolectin GS-IB4).

“Also recorded” adds a separate entry of the source.

Turning to Insulin-like growth factor 1 [IGF-1], the results for the “increase of SD threshold compared to control” value in assay [1] (3-day exposure to IGF-1), in assay [1] (7-day phasic exposure to IGF-1 (12 hours a day)) and in assay [1] (acute (15-30 min) exposure to IGF-1) were 75 fold, 22 fold and 24 fold, respectively. Moreover, the “relative SD threshold levels” value in assay [1] (coincubation with ascorbate and IGF-1 versus IGF-1 alone) is listed as 1.00±0.31. The “baseline slice culture OS versus control” value was “significantly reduce baseline OS; also recorded: reduced slice culture OS” in assay [2] (3-day IGF-1 alone) and “did not reduced slice culture OS” in assay [2] (acute IGF-1 exposure alone). The “decrease in OS from SD” value was determined as 30% in assay [2] (3-day exposure to IGF-1); 73% in assay [2] (7 days IGF-1, phasic); 20% in assay [2] (acute treatment with IGF-1). In addition, the “reduction of baseline OS levels compared with controls” value in assay [2] (7-day exposure to IGF-1 alone) is 26%. The “increased OS induced by SD” value in assay [2] (IGF-1 (40 ng/mL) for 3 days prior to SD) was “reduction in OS; also recorded: abrogated”; in assay [2] (IGF-1 acutely), “abrogated”; in assay [2] (IGF-1 for 7 days prior to SD, 12 hours a day) it was “significantly reduced”. For the same molecule, the “OS induced by menadione versus control” value in assay [2] (menadione exposure, without or with acute IGF-1) was “abrogated; also recorded: reduced OS from menadione”; in assay [2] (pretreatment with IGF-1 for 3 days), “abrogated; also recorded: reduced menadione-induced significant increase in OS”.

B1: Interferon-gamma (protein, listed as Homo sapiens)
chain: MKYTSYILAFQLCIVLGSLGCYCQDPYVKEAENLKKYFNAGHSDVADNGTLFLGILKNWKEESDRKIMQSQIVSFYFKLFKNFKDDQSIQKSVETIKEDMNVKFFNSNKKKRDDFEKLTNYSVTDLNVQRKAIHELIQVMAELSPAAKTGKRKRSQMLFRGRRASQ
As to B1, the “susceptibility to SD” value in assay [1] (IFN-γ 500 U/mL, at 1 day) is given as “significantly increased susceptibility to SD”. For the same molecule, the OS result in assay [2] (transient (pulsed) IFN-γ 500 U/mL × 12 hours, assessed seven days later) was “OS is reduced; also recorded: similarly reduced”.

The values above are taken from patent US10391150B2, “Treatments for migraine and related disorders” (The University of Chicago, priority 2011, dated 2019).
